Values joined by “and” are separate entries in the source; they are usually repeats but may differ in a detail not shown here. Equal values may be shown once.
Test system: MDA-MB-468 spheroids with HUVEC/MSC, viability
Assay: Anticancer human tumor MDA-MB-468 cell line growth inhibition [PI3K];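 also: spheroids exposed to agents for seven days before readout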;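 as to viability, T/C: 100% = DMSO vehicle control viability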
Settings: for viability, T/C: stronger effect = lower value
In short: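 Multi-cell spheroids combine tumor cells with HUVEC and human MSCs, treated with targeted agents alone or with inavolisib, alpelisib, duvelisib or copanlisib. Concentrations fall in half-log steps from at or near clinical Cmax, or from 10 microM where Cmax is unknown; viability read-out.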

[1] = curve of first compound, second compound 0.0316 µM
[2] = curve of first compound, second compound 0.1 µM
[3] = curve of first compound, second compound 0.316 µM
[4] = curve of first compound, second compound 1 µM
[5] = curve of first compound, second compound 3.16 µM
[6] = curve of first compound, second compound 10 µM
[7] = second compound 0.0316 µM, first compound 0.0316 µM
[8] = second compound 0.0316 µM, first compound 0.1 µM
[9] = second compound 0.0316 µM, first compound 0.316 µM
[10] = second compound 0.0316 µM, first compound 1 µM
[11] = second compound 0.0316 µM, first compound 3.16 µM
[12] = second compound 0.0316 µM, first compound 10 µM
[13] = second compound 0.1 µM, first compound 0.0316 µM
[14] = second compound 0.1 µM, first compound 0.1 µM
[15] = second compound 0.1 µM, first compound 0.316 µM
[16] = second compound 0.1 µM, first compound 1 µM
[17] = second compound 0.1 µM, first compound 3.16 µM
[18] = second compound 0.1 µM, first compound 10 µM
[19] = second compound 0.316 µM, first compound 0.0316 µM
[20] = second compound 0.316 µM, first compound 0.1 µM
[21] = second compound 0.316 µM, first compound 0.316 µM
[22] = second compound 0.316 µM, first compound 1 µM
[23] = second compound 0.316 µM, first compound 3.16 µM
[24] = second compound 0.316 µM, first compound 10 µM
[25] = second compound 1 µM, first compound 0.0316 µM
[26] = second compound 1 µM, first compound 0.1 µM
[27] = second compound 1 µM, first compound 0.316 µM
[28] = second compound 1 µM, first compound 1 µM
[29] = second compound 1 µM, first compound 3.16 µM
[30] = second compound 1 µM, first compound 10 µM
[31] = second compound 3.16 µM, first compound 0.0316 µM
[32] = second compound 3.16 µM, first compound 0.1 µM
[33] = second compound 10 µM, first compound 0.0316 µM
[34] = second compound 10 µM, first compound 0.1 µM
[35] = second compound 0.0316 µM, first compound 0.000316 µM
[36] = second compound 0.0316 µM, first compound 0.001 µM
[37] = second compound 0.0316 µM, first compound 0.00316 µM
[38] = second compound 0.0316 µM, first compound 0.01 µM
[39] = second compound 0.1 µM, first compound 0.000316 µM
[40] = second compound 0.1 µM, first compound 0.001 µM
[41] = second compound 0.1 µM, first compound 0.00316 µM
[42] = second compound 0.1 µM, first compound 0.01 µM
[43] = second compound 0.316 µM, first compound 0.000316 µM
[44] = second compound 0.316 µM, first compound 0.001 µM
[45] = second compound 0.316 µM, first compound 0.00316 µM
[46] = second compound 0.316 µM, first compound 0.01 µM
[47] = second compound 1 µM, first compound 0.000316 µM
[48] = second compound 1 µM, first compound 0.001 µM
[49] = second compound 1 µM, first compound 0.00316 µM
[50] = second compound 1 µM, first compound 0.01 µM
[51] = second compound 3.16 µM, first compound 0.000316 µM
[52] = second compound 3.16 µM, first compound 0.001 µM
[53] = second compound 3.16 µM, first compound 0.00316 µM
[54] = second compound 3.16 µM, first compound 0.01 µM
[55] = second compound 10 µM, first compound 0.000316 µM
[56] = second compound 10 µM, first compound 0.001 µM
[57] = second compound 10 µM, first compound 0.00316 µM
[58] = second compound 10 µM, first compound 0.01 µM

CC1(C)CCC(Nc2ncc(C(F)(F)F)c(-c3c[nH]c4c(P(C)(C)=O)c(C#N)ccc34)n2)CN1 (stereo not given) + CC(Nc1ncnc2nc[nH]c12)c1cc2cccc(Cl)c2c(=O)n1-c1ccccc1
IC50 [1]: < 31.6 nM | IC50 [2]: < 31.6 nM | IC50 [3]: < 31.6 nM | IC50 [4]: < 31.6 nM | IC50 [5]: < 31.6 nM | IC50 [6]: < 31.6 nM | viability, T/C [7]: 11.2% | viability, T/C [8]: 8.83% | viability, T/C [9]: 8.44% | viability, T/C [10]: 8.51% | viability, T/C [11]: 9.51% | viability, T/C [12]: 1.74% | viability, T/C [13]: 12.5% | viability, T/C [14]: 11.6% | viability, T/C [15]: 8.64% | viability, T/C [16]: 8.66% | viability, T/C [17]: 8.77% | viability, T/C [18]: 1.45% | viability, T/C [19]: 11.2% | viability, T/C [20]: 11% | viability, T/C [21]: 9.67% | viability, T/C [22]: 8.74% | viability, T/C [23]: 9.29% | viability, T/C [24]: 1.74% | viability, T/C [25]: 12.8% | viability, T/C [26]: 10.6% | viability, T/C [27]: 9.64% | viability, T/C [28]: 9.48% | viability, T/C [29]: 9.76% | viability, T/C [30]: 1.16% | viability, T/C [31]: 11.8% | viability, T/C [32]: 10.2% | viability, T/C (second compound 3.16 µM, first compound 0.316 µM): 11.1% | viability, T/C (second compound 3.16 µM, first compound 1 µM): 9.71% | viability, T/C (second compound 3.16 µM, first compound 3.16 µM): 7.09% | viability, T/C (second compound 3.16 µM, first compound 10 µM): 1.3% | viability, T/C [33]: 12.6% | viability, T/C [34]: 10.8% | viability, T/C (second compound 10 µM, first compound 0.316 µM): 10% | viability, T/C (second compound 10 µM, first compound 1 µM): 10% | viability, T/C (second compound 10 µM, first compound 3.16 µM): 7.06% | viability, T/C (second compound 10 µM, first compound 10 µM): 1.03%

C[C@@H](NC(=O)c1ncnc(N)c1Cl)c1ncc(C(=O)Nc2cc(C(F)(F)F)c(Cl)cn2)s1 + CC(Nc1ccc2c(c1)OCCn1cc(N3C(=O)OCC3C(F)F)nc1-2)C(N)=O
IC50 (curve of first compound, second compound 0.00316 µM): > 10000 nM | IC50 (curve of first compound, second compound 0.01 µM): > 10000 nM | IC50 [1]: > 10000 nM | IC50 [2]: > 10000 nM | IC50 [3]: > 10000 nM | IC50 [4]: > 10000 nM | viability, T/C (second compound 0.00316 µM, first compound 0.0316 µM): 91.6% | viability, T/C (second compound 0.00316 µM, first compound 0.1 µM): 102% | viability, T/C (second compound 0.00316 µM, first compound 0.316 µM): 93.7% | viability, T/C (second compound 0.00316 µM, first compound 1 µM): 102% | viability, T/C (second compound 0.00316 µM, first compound 3.16 µM): 104% | viability, T/C (second compound 0.00316 µM, first compound 10 µM): 108% | viability, T/C (second compound 0.01 µM, first compound 0.0316 µM): 104% | viability, T/C (second compound 0.01 µM, first compound 0.1 µM): 105% | viability, T/C (second compound 0.01 µM, first compound 0.316 µM): 105% | viability, T/C (second compound 0.01 µM, first compound 1 µM): 107% | viability, T/C (second compound 0.01 µM, first compound 3.16 µM): 93.3% | viability, T/C (second compound 0.01 µM, first compound 10 µM): 81% | viability, T/C [7]: 104% | viability, T/C [8]: 92.2% | viability, T/C [9]: 102% | viability, T/C [10]: 97.3% | viability, T/C [11]: 93.3% | viability, T/C [12]: 81.4% | viability, T/C [13]: 98.7% | viability, T/C [14]: 85.2% | viability, T/C [15]: 93.2% | viability, T/C [16]: 101% | viability, T/C [17]: 101% | viability, T/C [18]: 86.2% | viability, T/C [19]: 83.3% | viability, T/C [20]: 83.7% | viability, T/C [21]: 94.7% | viability, T/C [22]: 99.7% | viability, T/C [23]: 108% | viability, T/C [24]: 68.2% | viability, T/C [25]: 97.3% | viability, T/C [26]: 89.5% | viability, T/C [27]: 89.6% | viability, T/C [28]: 99.5% | viability, T/C [29]: 91% | viability, T/C [30]: 74.1%

Cn1ncnc1[C@H]1c2n[nH]c(=O)c3cc(F)cc(c23)N[C@@H]1c1ccc(F)cc1 + CC(Nc1ncnc2nc[nH]c12)c1cc2cccc(Cl)c2c(=O)n1-c1ccccc1
IC50 [1]: > 100 nM | IC50 [2]: > 100 nM | IC50 [3]: 96.2 nM | IC50 [4]: 72.5 nM | IC50 [5]: 37 nM | IC50 [6]: < 0.316 nM | viability, T/C [35]: 84.5% | viability, T/C [36]: 90.7% | viability, T/C [37]: 86.9% | viability, T/C [38]: 78.1% | viability, T/C [7]: 68.1% | viability, T/C [8]: 51.2% | viability, T/C [39]: 78.3% | viability, T/C [40]: 95.1% | viability, T/C [41]: 85% | viability, T/C [42]: 66% | viability, T/C [13]: 65.3% | viability, T/C [14]: 51.7% | viability, T/C [43]: 73.2% | viability, T/C [44]: 74.5% | viability, T/C [45]: 73% | viability, T/C [46]: 69.9% | viability, T/C [19]: 64% | viability, T/C [20]: 49.5% | viability, T/C [47]: 59.3% | viability, T/C [48]: 74% | viability, T/C [49]: 60.1% | viability, T/C [50]: 64.5% | viability, T/C [25]: 57.8% | viability, T/C [26]: 46.8% | viability, T/C [51]: 55.5% | viability, T/C [52]: 52.1% | viability, T/C [53]: 53.4% | viability, T/C [54]: 52.8% | viability, T/C [31]: 51.9% | viability, T/C [32]: 38.7% | viability, T/C [55]: 39.4% | viability, T/C [56]: 37.8% | viability, T/C [57]: 40.6% | viability, T/C [58]: 36.9% | viability, T/C [33]: 35.2% | viability, T/C [34]: 26.9%

CCN1CCN(Cc2ccc(Nc3ncc(F)c(-c4cc(F)c5nc(C)n(C(C)C)c5c4)n3)nc2)CC1
viability, T/C (compound 0.00316 µM): 98.5% and 101% (2×) and 106% | viability, T/C (compound 0.0316 µM): 99.3% [middle of 4 runs] | viability, T/C (compound 0.316 µM): 108% [middle of 4 runs] | viability, T/C (compound 1 µM): 66.1% [middle of 4 runs] | IC50 (curve of compound): > 1000 nM

Cn1ncnc1[C@H]1c2n[nH]c(=O)c3cc(F)cc(c23)N[C@@H]1c1ccc(F)cc1 + Cc1nc(NC(=O)N2CCCC2C(N)=O)sc1-c1ccnc(C(C)(C)C(F)(F)F)c1
IC50 [1]: > 100 nM | IC50 [2]: 66.5 nM | IC50 [3]: 42.9 nM | IC50 [4]: 24.4 nM | IC50 [5]: 4.2 nM | IC50 [6]: < 0.316 nM | viability, T/C [35]: 88.3% | viability, T/C [36]: 79.8% | viability, T/C [37]: 84.7% | viability, T/C [38]: 98.3% | viability, T/C [7]: 84% | viability, T/C [8]: 56.3% | viability, T/C [39]: 80.2% | viability, T/C [40]: 93.7% | viability, T/C [41]: 81.9% | viability, T/C [42]: 93% | viability, T/C [13]: 62.7% | viability, T/C [14]: 43% | viability, T/C [43]: 88% | viability, T/C [44]: 76.6% | viability, T/C [45]: 83.7% | viability, T/C [46]: 79.6% | viability, T/C [19]: 52.5% | viability, T/C [20]: 43% | viability, T/C [47]: 94.2% | viability, T/C [48]: 78% | viability, T/C [49]: 62.9% | viability, T/C [50]: 62% | viability, T/C [25]: 46.1% | viability, T/C [26]: 41.4% | viability, T/C [51]: 64.7% | viability, T/C [52]: 60% | viability, T/C [53]: 50.4% | viability, T/C [54]: 46.7% | viability, T/C [31]: 37.6% | viability, T/C [32]: 36.2% | viability, T/C [55]: 35.2% | viability, T/C [56]: 25.9% | viability, T/C [57]: 31.2% | viability, T/C [58]: 26.9% | viability, T/C [33]: 20.3% | viability, T/C [34]: 18.5%

CC(Nc1ccc2c(c1)OCCn1cc(N3C(=O)OCC3C(F)F)nc1-2)C(N)=O (stereo not given)
viability, T/C (compound 0.00316 µM): 96.8% [middle of 8 runs] | viability, T/C (compound 0.01 µM): 88.1% [middle of 8 runs] | viability, T/C (compound 0.0316 µM): 84.2% [middle of 8 runs] | viability, T/C (compound 0.1 µM): 91.4% [middle of 8 runs] | viability, T/C (compound 0.316 µM): 93.4% [middle of 8 runs] | viability, T/C (compound 1 µM): 90.8% [middle of 8 runs] | IC50 (compound alone, run of 05/08/2023): > 1000 nM

Source: PubChem BioAssay AID1963960 (Molecular Pharmacology Branch, DTP, NCI, 2024)
